26 compounds from patent publication US20090291938A1 (TAKEDA PHARMACEUTICAL COMPANY LIMITED, priority 2007, published 2009) can be followed below.

The first test has as its system HT29 human colorectal adenocarcinoma cell line. Briefly: cell proliferation assay (Cell Titer-Glo luminescent cell viability assay). Conditions: HT-29, 72 h, read-out: pIC50 (converted). It is filed as cell-based. In outline: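 Cells grown in DMEM with 10% FBS and exposed to compounds for 72 h. Viability read by CellTiter-Glo luminescence, expressed as percentage of DMSO-treated cells.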
For orientation: ATP-based viability assays read luminescence as a measure of living cells.
`CCC1(C)CN(C2CCCC2)c2nc(Nc3ccc(C(=O)NC4CCN(C)CC4)cc3OC)ncc2N(C)C1=O` (centres unmarked) [Compound 131, 4-(9-Cyclopentyl-7-ethyl-5,7-dimethyl-6-oxo-6,7,8,9-tetrahydro-5H-pyrimido[4,5-b][1,4]diazepin-2-ylamino)-3-methoxy-N-(1-methylpiperidin-4-yl)benzamide]: the IC50 was 3.16 to 10 nM.
Take `COc1cc(C(=O)NC2CCN(C)CC2)ccc1Nc1ncc2c(n1)N(C1CCCC1)CC(C)(C)C(=O)N2C` [Compound 86, 4-(9-cyclopentyl-5,7,7-trimethyl-6-oxo-6,7,8,9-tetrahydro-5H-pyrimido[4,5-b][1,4]diazepin-2-ylamino)-3-methoxy-N-(1-methylpiperidin-4-yl)benzamide]: the IC50 was 3.16 to 10 nM.

The same test, now with this note: HT-29, cell proliferative assay, HT29 cells, 72 hr treatment, values given as ranges, read-out: pIC50 (converted).
Turning to `C=CCC1CN(C2CCCCC2)c2nc(Nc3ccc(C(=O)N[C@@H]4CCN(C)C4)cc3OC)ncc2N(C)C1=O` (stereo partly drawn) [Compound 230, 4-(7-allyl-9-cyclohexyl-5-methyl-6-oxo-6,7,8,9-tetrahydro-5H-pyrimido[4,5-b][1,4]diazepin-2-ylamino)-3-methoxy-N-((R)-1-methylpyrrolidin-3-yl)benzamide], the IC50 is more than 10 nM.
On to `CCN1CCC(NC(=O)c2ccc(Nc3ncc4c(n3)N(C3CCCCC3)CC(C)(C)C(=O)N4C)c(OC)c2)CC1` [Compound 113, 4-(9-cyclohexyl-5,7,7-trimethyl-6-oxo-6,7,8,9-tetrahydro-5H-pyrimido[4,5-b][1,4]diazepin-2-ylamino)-N-(1-ethylpiperidin-4-yl)-3-methoxybenzamide], for which the IC50 was less than 1 nM.
Regarding `COc1cc(C(=O)N[C@@H]2CCCNC2)ccc1Nc1ncc2c(n1)N(C1CCCC1)CC1(CCC1)C(=O)N2C` [Compound 181, (R)-4-(9′-cyclopentyl-5′-methyl-6′-oxo-5′,6′,8′,9′-tetrahydrospiro[cyclobutane-1,7′-pyrimido[4,5-b][1,4]diazepine]-2′-ylamino)-3-methoxy-N-(piperidin-3-yl)benzamide], the IC50 is 3.16 to 10 nM.
In the case of `COc1cc(C(=O)N[C@@H]2CCCN(C)C2)ccc1Nc1ncc2c(n1)N(C1CCCC1)CC1(CC1)C(=O)N2C` [Compound 165, (R)-4-(9′-cyclopentyl-5′-methyl-6′-oxo-5′,6′,8′,9′-tetrahydrospiro[cyclopropane-1,7′-pyrimido[4,5-b][1,4]diazepine]-2′-ylamino)-3-methoxy-N-(1-methylpiperidin-3-yl)benzamide], the IC50 is 1 to 2.51 nM.
The same measure, in the same setting: the same measure for `CC[C@@]1(C)CN(C2CCCCC2)c2nc(Nc3ccc(C(=O)N[C@H]4CCCNC4)cc3OC)ncc2N(C)C1=O` [Compound 149, 4-((S)-9-cyclohexyl-7-ethyl-5,7-dimethyl-6-oxo-6,7,8,9-tetrahydro-5H-pyrimido[4,5-b][1,4]diazepin-2-ylamino)-3-methoxy-N-((S)-piperidin-3-yl)benzamide]: 3.16 to 10 nM; for `COc1cc(C(=O)N[C@@H]2CCNC2)ccc1Nc1ncc2c(n1)N(C1CCCC1)CCC(=O)N2C` [Compound 41, (R)-4-(9-cyclopentyl-5-methyl-6-oxo-6,7,8,9-tetrahydro-5H-pyrimido[4,5-b][1,4]diazepin-2-ylamino)-3-methoxy-N-(pyrrolidin-3-yl)benzamide]: more than 10 nM.
`C=CCC1(C)CN(C2CCCC2)c2nc(Nc3ccc(C(=O)NC4CCN(C)CC4)cc3OC)ncc2N(C)C1=O` (centres unmarked) [Compound 221, 4-(7-allyl-9-cyclopentyl-5,7-dimethyl-6-oxo-6,7,8,9-tetrahydro-5H-pyrimido[4,5-b][1,4]diazepin-2-ylamino)-3-methoxy-N-(1-methylpiperidin-4-yl)benzamide]: the IC50 was 1 to 2.51 nM.
For `C=CC1(C)CN(C2CCCC2)c2nc(Nc3ccc(C(=O)NC4CCN(C)CC4)cc3OC)ncc2N(C)C1=O` (centres unmarked) [Compound 239, 4-(9-cyclopentyl-5,7-dimethyl-6-oxo-7-vinyl-6,7,8,9-tetrahydro-5H-pyrimido[4,5-b][1,4]diazepin-2-ylamino)-3-methoxy-N-(1-methylpiperidin-4-yl)benzamide], the IC50 was 3.16 to 10 nM.
Regarding `COc1cc(C(=O)NCCN(C)C)ccc1Nc1ncc2c(n1)N(C1CCCC1)CC(C)(C)C(=O)N2C` [Compound 92, 4-(9-cyclopentyl-5,7,7-trimethyl-6-oxo-6,7,8,9-tetrahydro-5H-pyrimido[4,5-b][1,4]diazepin-2-ylamino)-N-(2-(dimethylamino)ethyl)-3-methoxybenzamide], the IC50 is 3.16 to 10 nM.
`CC#CC[C@@H]1CN(C2CCCC2)c2nc(Nc3ccc(C(=O)NC4CCN(C)CC4)cc3OC)ncc2N(C)C1=O` [Compound 216, (R)-4-(7-(but-2-ynyl)-9-cyclopentyl-5-methyl-6-oxo-6,7,8,9-tetrahydro-5H-pyrimido[4,5-b][1,4]diazepin-2-ylamino)-3-methoxy-N-(1-methylpiperidin-4-yl)benzamide]: the IC50 was 1 to 2.51 nM.
`COc1cc(C(=O)NC[C@@H]2CCCN2)ccc1Nc1ncc2c(n1)N(C1CCCC1)CCC(=O)N2C` [Compound 61, (S)-4-(9-cyclopentyl-5-methyl-6-oxo-6,7,8,9-tetrahydro-5H-pyrimido[4,5-b][1,4]diazepin-2-ylamino)-3-methoxy-N-(pyrrolidin-2-ylmethyl)benzamide]: the IC50 was more than 10 nM.
The same measure, in the same setting: the same measure for `COc1cc(C(=O)N[C@@H]2CCCNC2)ccc1Nc1ncc2c(n1)N(C1CCCCC1)CC(C)(C)C(=O)N2C` [Compound 110, (R)-4-(9-cyclohexyl-5,7,7-trimethyl-6-oxo-6,7,8,9-tetrahydro-5H-pyrimido[4,5-b][1,4]diazepin-2-ylamino)-3-methoxy-N-(piperidin-3-yl)benzamide]: 1 to 2.51 nM; for `COc1cc(C(=O)NN2CCN(C3CCCC3)CC2)ccc1Nc1ncc2c(n1)N(C1CCCCC1)CC(C)(C)C(=O)N2C` [Compound 117, 4-(9-cyclohexyl-5,7,7-trimethyl-6-oxo-6,7,8,9-tetrahydro-5H-pyrimido[4,5-b][1,4]diazepin-2-ylamino)-N-(4-cyclopentylpiperazin-1-yl)-3-methoxybenzamide]: 3.16 to 10 nM; for `C=CCC1CN(C2CCCCC2)c2nc(Nc3ccc(C(=O)N[C@H]4CCN(C)C4)cc3OC)ncc2N(C)C1=O` (stereo partly drawn) [Compound 229, 4-(7-allyl-9-cyclohexyl-5-methyl-6-oxo-6,7,8,9-tetrahydro-5H-pyrimido[4,5-b][1,4]diazepin-2-ylamino)-3-methoxy-N-((S)-1-methylpyrrolidin-3-yl)benzamide]: 1 to 2.51 nM.
On the same count and under the same terms, the same measure for `C=CCC1CN(C2CCCCC2)c2nc(Nc3ccc(C(=O)NN4CCN(C)CC4)cc3OC)ncc2N(C)C1=O` (centres unmarked) [Compound 226, 4-(7-allyl-9-cyclohexyl-5-methyl-6-oxo-6,7,8,9-tetrahydro-5H-pyrimido[4,5-b][1,4]diazepin-2-ylamino)-3-methoxy-N-(4-methylpiperazin-1-yl)benzamide]: 1 to 2.51 nM.
With `COc1cc(C(=O)NC2CCN(C(=O)C3CC3)CC2)ccc1Nc1ncc2c(n1)N(C1CCCC1)CCC(=O)N2C` [Compound 73], the IC50 was more than 10 nM.
Consider `COc1cc(C(=O)NC2CC(C)(C)N(C)C(C)(C)C2)ccc1Nc1ncc2c(n1)N(C1CCCC1)CCC(=O)N2C` [Compound 80, 4-(9-cyclopentyl-5-methyl-6-oxo-6,7,8,9-tetrahydro-5H-pyrimido[4,5-b][1,4]diazepin-2-ylamino)-3-methoxy-N-(1,2,2,6,6-pentamethylpiperidin-4-yl)benzamide], for which the IC50 is 3.16 to 10 nM.
As for `C=CC[C@H]1CN(C2CCCC2)c2nc(Nc3ccc(C(=O)NC4CCNCC4)cc3OC)ncc2N(C)C1=O` [Compound 207, (S)-4-(7-allyl-9-cyclopentyl-5-methyl-6-oxo-6,7,8,9-tetrahydro-5H-pyrimido[4,5-b][1,4]diazepin-2-ylamino)-3-methoxy-N-(piperidin-4-yl)benzamide], the IC50 is 3.16 to 10 nM.
Consider `C/C=C/CC1CN(C2CCCC2)c2nc(Nc3ccc(C(=O)NC4CCN(C)CC4)cc3OC)ncc2N(C)C1=O` (centres unmarked) [Compound 220, (E)-4-(7-(but-2-enyl)-9-cyclopentyl-5-methyl-6-oxo-6,7,8,9-tetrahydro-5H-pyrimido[4,5-b][1,4]diazepin-2-ylamino)-3-methoxy-N-(1-methylpiperidin-4-yl)benzamide], for which the IC50 is 3.16 to 10 nM.
In the case of `C=C[C@]1(C)CN(C2CCCC2)c2nc(Nc3ccc(C(=O)NN4CCN(C)CC4)cc3OC)ncc2N(C)C1=O` [Compound 243, (R)-4-(9-cyclopentyl-5,7-dimethyl-6-oxo-7-vinyl-6,7,8,9-tetrahydro-5H-pyrimido[4,5-b][1,4]diazepin-2-ylamino)-3-methoxy-N-(4-methylpiperazin-1-yl)benzamide], the IC50 is less than 1 nM.
For `COc1cc(C(=O)NC2CCN(C(C)=O)CC2)ccc1Nc1ncc2c(n1)N(C1CCCC1)CC(C)(C)C(=O)N2C` [Compound 90, N-(1-acetylpiperidin-4-yl)-4-(9-cyclopentyl-5,7,7-trimethyl-6-oxo-6,7,8,9-tetrahydro-5H-pyrimido[4,5-b][1,4]diazepin-2-ylamino)-3-methoxybenzamide], the IC50 was 1 to 2.51 nM.
Turning to `CC[C@@]1(C)CN(C2CCCC2)c2nc(Nc3ccc(C(=O)NN4CCN(C)CC4)cc3OC)ncc2N(C)C1=O` [Compound 133, (S)-4-(9-cyclopentyl-7-ethyl-5,7-dimethyl-6-oxo-6,7,8,9-tetrahydro-5H-pyrimido[4,5-b][1,4]diazepin-2-ylamino)-3-methoxy-N-(4-methylpiperazin-1-yl)benzamide], the IC50 is more than 10 nM.
With `C=CC1(C)CN(C2CCCC2)c2nc(Nc3ccc(C(=O)NC4CN(C)C4)cc3OC)ncc2N(C)C1=O` (centres unmarked) [Compound 247, 4-(9-cyclopentyl-5,7-dimethyl-6-oxo-7-vinyl-6,7,8,9-tetrahydro-5H-pyrimido[4,5-b][1,4]diazepin-2-ylamino)-3-methoxy-N-(1-methylazetidin-3-yl)benzamide], the IC50 is 3.16 to 10 nM.
On the same count and under the same terms, the same measure for `COc1cc(C(=O)NCCNC(C)=O)ccc1Nc1ncc2c(n1)N(C1CCCC1)CCC(=O)N2C` [Compound 43, N-(2-acetamidoethyl)-4-(9-cyclopentyl-5-methyl-6-oxo-6,7,8,9-tetrahydro-5H-pyrimido[4,5-b][1,4]diazepin-2-ylamino)-3-methoxybenzamide]: more than 10 nM.
